Test results: patent US20250090576A1, “METHODS FOR TREATING NONTUBERCULOUS MYCOBACTERIA DISEASES” (Microbion Corporation, priority 2022, published 2025)
Converted amounts (≈) assume the structure as drawn.

Experiments:
Type in all cases: cell-based
[1] = tested on: M. avium strain 104 (MAH 104) in THP-1 macrophages; assay: Mycobacterial survival (CFU) in infected THP-1 macrophages; details: 4-day and 7-day, drugs at MIC
Experimental: THP-1 macrophages were differentiated with 50 ng/ml PMA for 24 hours, followed by 24 hours in media prior to infection. Differentiated THP-1 macrophages were either infected with M. avium strains or M. abscessus strains for 1 hour with an multiplicity of infection (MOI) of 5 or uninfected. Cells were washed twice, followed by 1 hour of antibiotic treatment with 200 μg/ml of amikacin to remove extracellular bacteria. After the antibiotic step, cells were washed once more and BisEDT (BIZ) or amikacin was added once to selected wells (see in vitro doses below).
The treatments included: vehicle, amikacin, Soluble BisEDT (S Biz), Insoluble BisEDT (I Biz), and amikacin+BisEDT. The time points for sample preparation were 72 h for M. abscessus strains and 4- and 7-days post infection for M. avium strains. At the indicated timepoints cell media was removed and replaced with 400 ul of 0.1% triton x-100 in H2O for lysis. Wells were pipetted 25 times to disrupt cells then diluted and plated for CFU enumeration.

[2] = tested on: M. abscessus MABS2 biofilm; assay: MBEC assay (minimum biofilm eradication concentration); details: 18 h challenge
Text: (§1) In this study the MBEC assay was followed as described in the Innovotech Procedural Manual, version 2.1 with minor modifications to assess the antibiofilm activity of the antimicrobial compounds under investigation. The MBEC value refers to the Minimum Biofilm Eradication Concentration of each antimicrobial for each strain. The MBEC value is defined as the minimum antibiotic concentration where the optical density (OD) value at recovery is less than 10% of the control OD value and there is no growth observed with visual examination of the wells.
(§2) Step 1: Inoculation. For resuscitation, all strains were streaked on TSA plates, except for the mycobacteria which were streaked on 7H10 media, from the frozen stocks, and grew overnight at 37° C. (Table 6). From the plate, one colony was picked for inoculation in organism specific medium (OSM) and grown in a shaker incubator at 37° C. at 225 RPM until mid-log phase (OD 0.2-0.8). At mid log phase the culture was diluted in OSM medium (Table 6) to an OD of 0.05. 150 μL of it were aliquoted in each corresponding well in a 96-well MBEC plate (inoculation plate). Subsequently, the MBEC plates were incubated static at 37° C. for the appropriate time for each species (Table 7). During incubation, biofilm formed on the pegs.
(§3) Step 2: Challenge. Following incubation, the peg lid with the biofilm was washed twice in PBS and placed on a second 96-well plate with 200 μl of antibiotic dilutions (challenge plate). The challenge plate was then incubated at 37° C. for 18 h to allow exposure of the biofilm to antibiotics.
(§4) Step 3: Recovery. In the final step, the peg lid (with the biofilm after treatment with the antibiotics) was washed again twice in PBS and placed on a third 96-well plate (recovery plate) with 200 μl growth medium in each well to allow growth of any bacterial cells resistant to antibiotics at any concentration. The recovery of resistant cells was assessed by an end-point measurement of the optical density at 600 nm (OD600) for each well with a plate reader (FIG. 4).

[3] = tested on: M. abscessus MABS4 biofilm; assay: as above; details: 18 h challenge
Text: as §1, §2, §3, §4

[4] = tested on: M. abscessus MABS11 biofilm; assay: as above; details: 18 h challenge
Text: as §1, §2, §3, §4

[5] = tested on: M. abscessus MABS7 biofilm; assay: as above; details: 18 h challenge
Text: as §1, §2, §3, §4

[6] = tested on: M. abscessus MABS9 biofilm; assay: as above; details: 18 h challenge
Text: as §1, §2, §3, §4

[7] = tested on: M. abscessus MABS1 biofilm; assay: as above; details: 18 h challenge
Text: as §1, §2, §3, §4

[8] = tested on: M. abscessus MABS1; assay: MIC (Table 8); details: Mycobacteroides abscessus
[9] = tested on: M. abscessus MABS7; assay: MIC (Table 8); details: Mycobacteroides abscessus
[10] = tested on: M. abscessus MABS11; assay: MIC (Table 8); details: Mycobacteroides abscessus
[11] = tested on: M. abscessus biofilm (six clinical isolates); assay: MBEC assay, summary over six clinical isolates; details: at high concentrations (amikacin, clarithromycin: apart from MABS4)
Text: as §1, §2, §3
Step 3: Recovery. […] The recovery of resistant cells was assessed by an end-point measurement of the optical density at 600 nm (OD600) for each well with a plate reader (FIG. 4).
This is possibly, in part, due to the variable clumping of the cells observed in the biofilm biomass on the pegs. The clumping of the cells also impacted the OD readings. […] For replicate experiments with variable results, the final MBEC values were determined based on the higher MBEC concentration observed among the replicates.

[12] = tested on: M. abscessus MABS9; assay: MIC (Table 8); details: Mycobacteroides abscessus
[13] = tested on: M. abscessus MABS2; assay: MIC (Table 8); details: Mycobacteroides abscessus
[14] = tested on: M. abscessus MABS4; assay: MIC (Table 8); details: Mycobacteroides abscessus

C1C[S][Bi]([S]CC[S][Bi]2[S]CC[S]2)[S]1 [BisEDT in DMSO]
mycobacterial survival (CFU, bacterial load) in THP-1 macrophages, in words [1]: bacteriostatic effect

CO[C@@]1(NC(=O)Cc2cccs2)C(=O)N2C(C(=O)O)=C(COC(N)=O)CS[C@@H]21 [Cefoxitin]
MBEC [2]: >128 µg/mL | MBEC [3]: >128 µg/mL | MBEC [4]: >256 µg/mL | MBEC [5]: >128 µg/mL | MBEC [6]: >256 µg/mL | MBEC [7]: >128 µg/mL | MIC [8]: 8 µg/mL (≈ 18.7 µM) | MIC [9]: 16 µg/mL (≈ 37.4 µM) | MIC [10]: 16 µg/mL (≈ 37.4 µM) | biofilm susceptibility, in words [11]: resistance | MIC [12]: 32 µg/mL (≈ 74.9 µM) | MIC [13]: 8 µg/mL (≈ 18.7 µM) | MIC [14]: 16 µg/mL (≈ 37.4 µM)

CC[C@H]1OC(=O)[C@H](C)[C@@H](O[C@H]2C[C@@](C)(OC)[C@@H](O)[C@H](C)O2)[C@H](C)[C@@H](O[C@@H]2O[C@H](C)C[C@H](N(C)C)[C@H]2O)[C@](C)(OC)C[C@@H](C)C(=O)[C@H](C)[C@@H](O)[C@]1(C)O [Clarithromycin]
MBEC [2]: >32 µg/mL | MBEC [3]: <=4 μg/mL | MBEC ([3]; listed as clarithromycin): 4 µg/mL | MBEC [4]: >=32 μg/mL | MBEC [5]: >8 µg/mL | MBEC [6]: >8 µg/mL | MBEC [7]: >32 µg/mL | MIC [8]: 16 µg/mL (≈ 21.4 µM) | MIC [9]: 0.5 µg/mL (≈ 0.668 µM) | MIC [10]: 2 µg/mL (≈ 2.67 µM) | biofilm susceptibility, in words [11]: resistance | MIC [12]: 0.25 µg/mL (≈ 0.334 µM) | MIC [13]: 4 µg/mL (≈ 5.35 µM) | MIC [14]: 0.125 µg/mL (≈ 0.167 µM)

C[C@@H](O)[C@H]1C(=O)N2C(C(=O)O)=C(SCCN=CN)C[C@H]12 [Imipenem]
MBEC [2]: >16 µg/mL | MBEC [3]: >64 µg/mL | MBEC [4]: >64 µg/mL | MBEC [5]: >64 µg/mL | MBEC [6]: >64 µg/mL | MBEC [7]: >32 µg/mL | MIC [8]: 8 µg/mL (≈ 26.7 µM) | MIC [9]: 16 µg/mL (≈ 53.4 µM) | MIC [10]: 8 µg/mL (≈ 26.7 µM) | MIC [12]: 16 µg/mL (≈ 53.4 µM) | MIC [13]: 1 µg/mL (≈ 3.34 µM) | MIC [14]: 8 µg/mL (≈ 26.7 µM)
